Values joined by “and” are separate entries in the source; they are usually repeats but may differ in a detail not shown here. Identical values can stand only once. Marks after values point to notes of the source that are not given here.
System: patients with moderate to severe chronic plaque psoriasis
Assay: PASI response, Phase II 12-week placebo-controlled trial with 48-week extension
Assay type: in vivo, human
Settings: for Number of Patients Who Qualified for Dosage Escalation: 40 mg eow (n = 12); for PASI 50 (% patients) After Dose Escalation / PASI 75 (% patients) After Dose Escalation / PASI 90 (% patients) After Dose Escalation: escalation from eow to weekly dosing
Source text: Efficacy outcome measures included PASI and PGA.
The two primary clinical outcome measures used in this study were the psoriasis area and severity index (PASI) and the physician's global assessment (PGA). PASI improvement of greater than or equal to 75% (used as an endpoint in psoriasis clinical trials) at week 12 was the primary efficacy outcome measure for this study. PASI is a composite index indicating severity for three main signs of psoriatic plaques (erythema, scaling, and thickness), weighted by the amount of coverage of these plaques in four main body areas, i.e., head, trunk, upper extremities, and lower extremities. PASI scores, which range from 0-72, with higher scores indicating greater severity, were assessed at screening, baseline, week 1, week 2, week 4, week 8, week 12/early termination, and follow-up.
Skin and safety outcomes were assessed up to Week 60.
Analytical methods included the following: • Analyses of clinical data were performed on a modified intention-to-treat population (ITT). […] Patients whose dosages were increased on or after Week 24 were considered non-responders; • Patients with similar percentage PASI improvement across treatment arms were pooled into four strata: PASI<50, PASI 50-74, PASI 75-99, and PASI 100; and • Week-60 distribution of DLQI scores, mean DLQI scores, and mean change in DLQI from Week 0-60 were calculated within each stratum.
Frequently used as an endpoint in psoriasis clinical trials, the PASI [25] was the primary efficacy outcome in this trial. PASI is a composite index indicating the severity of the three main signs of psoriatic plaques (i.e., erythema, scaling, and thickness) and is weighted by the amount of coverage of these plaques in the four main body areas (head, trunk, upper extremities, and lower extremities). PASI scores range from 0-72, with higher scores indicating greater disease severity. PASI was assessed at screening and baseline, at Weeks 1, 2, 4, 8, and 12/Early Termination, and at the final follow-up visit.
At week 12, placebo patients received an 80-mg loading dose, then 40 mg every other week. […] Patients who receive the rescue therapy were considered non-responders in this analysis.

[1] = 40 mg eow, Week 60, modified ITT, NRI
[2] = 40 mg weekly, Week 60, modified ITT, NRI
[3] = (placebo→eow+eow) group, week 60, observed analysis
[4] = Efficacy at Weeks 24-60 (n = 22)
[5] = Week 12, adalimumab 40 mg eow, modified ITT, NRI
[6] = Week 12, adalimumab 40 mg weekly, modified ITT, NRI
[7] = Week 24, adalimumab 40 mg eow, modified ITT, NRI
[8] = Week 24, adalimumab 40 mg weekly, modified ITT, NRI
[9] = Week 24, placebo/adalimumab 40 mg eow (adalimumab from Week 12), modified ITT, NRI
[10] = Week 36, adalimumab 40 mg eow, modified ITT, NRI
[11] = Week 36, adalimumab 40 mg weekly, modified ITT, NRI
[12] = Week 36, placebo/adalimumab 40 mg eow (adalimumab from Week 12), modified ITT, NRI
[13] = Week 60, adalimumab 40 mg eow, modified ITT, NRI

Q: Which “Number of Patients Who Qualified for Dosage Escalation” value (from here on “Number of Patients Who Qualified”) (Week 24) does the source give for “Adalimumab: a human anti-TNF mAb, described in U.S. Pat. No. 6,090,382 as D2E7 (HUMIRA, Abbott Laboratories)” here?
A: 9

Q: And the “Number of Patients Who Qualified” value (Week 28)?
A: 1

Q: What about the “Number of Patients Who Qualified” value (Week 32) of the same substance?
A: 0

Q: What about the “Number of Patients Who Qualified” value (Week 44) of the same substance?
A: 1

Q: And the “Number of Patients Who Qualified” value (Week 52)?
A: 0

Q: What about the “Number of Patients Who Qualified” value (Week 60) of the same substance?
A: 1

Q: And the “patients with sustained, clinically significant improvement” value (40 mg eow dosing)?
A: ~80%

Q: And the “Overall PASI 75 response rate” value (40 mg eow, Week 12, modified ITT, NRI)?
A: 53* % of Patients

Q: And the “Overall PASI 75 response rate” value (40 mg eow, Week 24, modified ITT, NRI)?
A: 64 % of Patients

Q: And the “Overall PASI 75 response rate” value (40 mg eow, Week 36, modified ITT, NRI)?
A: 64 % of Patients

Q: And the “Overall PASI 75 response rate” value [1]?
A: 58 % of Patients and 56 % of Patients

Q: What about the “PASI 50 response rate” value [1] of the same substance?
A: 64 % Patients

Q: And the “PASI 90 response rate” value [1]?
A: 33 % Patients

Q: What about the “PASI 100 response rate” value [1] of the same substance?
A: 16 % Patients

Q: What about the “Overall PASI 75 response rate” value (40 mg eow, Week 60, modified ITT, NRI, listed as adalimumab) of the same substance?
A: 58 % of Patients

Q: And the “mean percentage PASI improvement” value (40 mg every other week dosage of placebo/adalimumab, week 60)?
A: 69%

Q: And the “mean percentage PASI improvement” value (40 mg of adalimumab alone, on a weekly basis, week 60)?
A: 69%

Q: What about the “Overall PASI 75 response rate” value (40 mg weekly, Week 12, modified ITT, NRI) of the same substance?
A: 80* % of Patients

Q: What about the “Overall PASI 75 response rate” value (40 mg weekly, Week 24, modified ITT, NRI) of the same substance?
A: 72 % of Patients

Q: And the “Overall PASI 75 response rate” value (40 mg weekly, Week 36, modified ITT, NRI)?
A: 68 % of Patients

Q: And the “Overall PASI 75 response rate” value [2]?
A: 64 % of Patients

Q: And the “PASI 50 response rate” value [2]?
A: 66 % Patients

Q: And the “PASI 90 response rate” value [2]?
A: 48 % Patients

Q: And the “PASI 100 response rate” value [2]?
A: 26 % Patients

Q: What about the “mean percentage PASI improvement” value (40 mg weekly, week 60) of the same substance?
A: 84%

Q: And the “PASI 75-99 response rate” value [3]?
A: 38

Q: And the “PASI 100 response rate” value [3]?
A: 17

Q: And the “PASI 75 Response at Week 60, patients eligible for dose escalation” value (Adalimumab 40 mg eow (n = 9))?
A: 22% (2/9)

Q: What about the “PASI 50 (% patients) After Dose Escalation” value (Efficacy at Week 60 (n = 22)) of the same substance?
A: 36%

Q: And the “PASI 75 (% patients) After Dose Escalation” value (Efficacy at Week 60 (n = 22))?
A: 18%

Q: And the “PASI 90 (% patients) After Dose Escalation” value (Efficacy at Week 60 (n = 22))?
A: 0%

Q: And the “PASI 50 (% patients) After Dose Escalation” value [4]?
A: 55%

Q: And the “PASI 75 (% patients) After Dose Escalation” value [4]?
A: 23%

Q: What about the “PASI 90 (% patients) After Dose Escalation” value [4] of the same substance?
A: 5%

Q: And the “PASI 75 Response at Week 60, patients eligible for dose escalation” value (Placebo/Adalimumab 40 mg eow (n = 13))?
A: 15% (2/13)

Q: What about the “Percentages of Patients with > PASI 75 Response” value (Week 12, 40 mg eow (Table 79)) of the same substance?
A: 53%

Q: And the “Percentages of Patients with > PASI 75 Response” value (Week 12, 40 mg weekly (Table 79))?
A: 80%

Q: And the “Percentage of patients who achieved PASI 100” value (Week 12, adalimumab 40 mg eow, NRI)?
A: 11* %

Q: What about the “PASI 50 (% patients)” value [5] of the same substance?
A: 76%

Q: And the “Percentage of patients who achieved PASI 75” value [5]?
A: 53%

Q: And the “Percentage of patients who achieved PASI 90” value [5]?
A: 24%

Q: What about the “Percentage of patients who achieved PASI 100” value (Week 12, adalimumab 40 mg weekly, NRI) of the same substance?
A: 26* %

Q: What about the “PASI 50 (% patients)” value [6] of the same substance?
A: 88%

Q: What about the “Percentage of patients who achieved PASI 75” value [6] of the same substance?
A: 80%

Q: And the “Percentage of patients who achieved PASI 90” value [6]?
A: 48%

Q: What about the “Patients Eligible for Dose Escalation (<PASI 50 response), number” value (“Patients Eligible … number” below) (Week 24, Adalimumab 40 mg eow (n = 9)) of the same substance?
A: 5

Q: What about the “Patients Eligible … number” value (Week 24, Placebo/Adalimumab 40 mg eow (n = 13)) of the same substance?
A: 5

Q: And the “Percentage of patients who achieved PASI 100” value (Week 24, adalimumab 40 mg eow, NRI)?
A: 13%

Q: What about the “Percentage of patients who achieved PASI 75” value [7] of the same substance?
A: 64%

Q: What about the “Percentage of patients who achieved PASI 90” value [7] of the same substance?
A: 42%

Q: What about the “Percentage of patients who achieved PASI 100” value (Week 24, adalimumab 40 mg weekly, NRI) of the same substance?
A: 24%

Q: And the “Percentage of patients who achieved PASI 75” value [8]?
A: 72%

Q: What about the “Percentage of patients who achieved PASI 90” value [8] of the same substance?
A: 62%

Q: And the “Percentage of patients who achieved PASI 100” value (Week 24, placebo/adalimumab 40 mg eow (adalimumab from Week 12), NRI)?
A: 11%

Q: What about the “Percentage of patients who achieved PASI 75” value [9] of the same substance?
A: 55%

Q: And the “Percentage of patients who achieved PASI 90” value [9]?
A: 32%

Q: What about the “Patients Eligible … number” value (Week 28, Adalimumab 40 mg eow (n = 9)) of the same substance?
A: 1

Q: What about the “Patients Eligible … number” value (Week 28, Placebo/Adalimumab 40 mg eow (n = 13)) of the same substance?
A: 2

Q: What about the “Patients Eligible … number” value (Week 32, Adalimumab 40 mg eow (n = 9)) of the same substance?
A: 0

Q: What about the “Patients Eligible … number” value (Week 32, Placebo/Adalimumab 40 mg eow (n = 13)) of the same substance?
A: 2

Q: What about the “Percentage of patients who achieved PASI 100” value (Week 36, adalimumab 40 mg eow, NRI) of the same substance?
A: 22%

Q: What about the “Percentage of patients who achieved PASI 75” value [10] of the same substance?
A: 64%

Q: And the “Percentage of patients who achieved PASI 90” value [10]?
A: 49%

Q: What about the “Percentage of patients who achieved PASI 100” value (Week 36, adalimumab 40 mg weekly, NRI) of the same substance?
A: 36%

Q: What about the “Percentage of patients who achieved PASI 75” value [11] of the same substance?
A: 68%

Q: What about the “Percentage of patients who achieved PASI 90” value [11] of the same substance?
A: 58%

Q: And the “Percentage of patients who achieved PASI 100” value (Week 36, placebo/adalimumab 40 mg eow (adalimumab from Week 12), NRI)?
A: 19%

Q: What about the “Percentage of patients who achieved PASI 75” value [12] of the same substance?
A: 62%

Q: What about the “Percentage of patients who achieved PASI 90” value [12] of the same substance?
A: 43%

Q: And the “Patients Eligible … number” value (Week 44, Adalimumab 40 mg eow (n = 9))?
A: 1

Q: And the “Patients Eligible … number” value (Week 44, Placebo/Adalimumab 40 mg eow (n = 13))?
A: 1

Q: And the “Patients Eligible … number” value (Week 52, Adalimumab 40 mg eow (n = 9))?
A: 0

Q: And the “Patients Eligible … number” value (Week 52, Placebo/Adalimumab 40 mg eow (n = 13))?
A: 3

Q: What about the “Patients Eligible … number” value (Week 60, Adalimumab 40 mg eow (n = 9)) of the same substance?
A: 2

Q: And the “Patients Eligible … number” value (Week 60, Placebo/Adalimumab 40 mg eow (n = 13))?
A: 0

Q: And the “Percentage of patients who achieved PASI 100” value (Week 60, adalimumab 40 mg eow, NRI)?
A: 16%

Q: And the “PASI 50 (% patients)” value [13]?
A: 67%

Q: And the “Percentage of patients who achieved PASI 75” value [13]?
A: 58%

Q: And the “Percentage of patients who achieved PASI 90” value [13]?
A: 33%

Q: What about the “Percentage of patients who achieved PASI 100” value (Week 60, adalimumab 40 mg weekly, NRI) of the same substance?
A: 26%

Reference: patent publication US9605064B2, “Methods and compositions for treatment of skin disorders” (AbbVie Biotechnology Ltd, priority 2006, dated 2017)
